Experimental findings from the NIST ThermoML archive (doi:10.1016/j.fluid.2013.12.015) are described below.

Each structure is given as a SMILES string. ± gives the expanded uncertainty stated by the source.

For this data set the following is noted: Liquid, Closed cell (Static) method.

As usually defined, the vapor or sublimation pressure is the equilibrium pressure above the liquid or solid. As for `CC(C)C` [2-methylpropane], the “vapor or sublimation pressure” value by setting is: (283.15 K) 222.2 ± 7 kPa; (293.15 K) 303.3 ± 7 kPa; (303.15 K) 406 ± 7 kPa; (313.15 K) 530.3 ± 7 kPa; (323.15 K) 684.4 ± 7.1 kPa.

Consider `C=C(F)C(F)(F)F` [2,3,3,3-tetrafluoro-1-propene], for which the “vapor or sublimation pressure” value is, setting by setting: (283.15 K) 436.5 ± 7 kPa; (293.15 K) 591 ± 7.1 kPa; (303.15 K) 780.5 ± 7.1 kPa; (313.15 K) 1015.6 ± 7.2 kPa; (323.15 K) 1300.7 ± 7.2 kPa.
